Article PMC12366525, “Characterization of allosteric modulators that disrupt androgen receptor co-activator protein-protein interactions to alter transactivation–Drug leads for metastatic castration resistant prostate cancer” (SLAS discovery : advancing life sciences R & D, 2023)
pIC50: −log10 of the molar value. “And” between values parts separate entries of the source, which are not always exact repeats. Identical values can stand only once. Like-named read-outs stand apart in the source and are kept apart here.

What was measured:
[1] = molecular target: T1, full length AR (Homo sapiens, UniProt P10275, T878A); experiment: PSA-6.1 luciferase reporter assay in C4–2 CRPC cells; assay type: cell-based; details: C4–2 cells; 50 nM DHT; 24 h; read-out: C4–2 PSA6.1-Luc Reporter IC50
T1 construct: DHT-induced full length AR directed TA; endogenous in cells; host or cells: C4–2 castration resistant prostate cancer cells
T1 sequence (P10275 1-920 T878A): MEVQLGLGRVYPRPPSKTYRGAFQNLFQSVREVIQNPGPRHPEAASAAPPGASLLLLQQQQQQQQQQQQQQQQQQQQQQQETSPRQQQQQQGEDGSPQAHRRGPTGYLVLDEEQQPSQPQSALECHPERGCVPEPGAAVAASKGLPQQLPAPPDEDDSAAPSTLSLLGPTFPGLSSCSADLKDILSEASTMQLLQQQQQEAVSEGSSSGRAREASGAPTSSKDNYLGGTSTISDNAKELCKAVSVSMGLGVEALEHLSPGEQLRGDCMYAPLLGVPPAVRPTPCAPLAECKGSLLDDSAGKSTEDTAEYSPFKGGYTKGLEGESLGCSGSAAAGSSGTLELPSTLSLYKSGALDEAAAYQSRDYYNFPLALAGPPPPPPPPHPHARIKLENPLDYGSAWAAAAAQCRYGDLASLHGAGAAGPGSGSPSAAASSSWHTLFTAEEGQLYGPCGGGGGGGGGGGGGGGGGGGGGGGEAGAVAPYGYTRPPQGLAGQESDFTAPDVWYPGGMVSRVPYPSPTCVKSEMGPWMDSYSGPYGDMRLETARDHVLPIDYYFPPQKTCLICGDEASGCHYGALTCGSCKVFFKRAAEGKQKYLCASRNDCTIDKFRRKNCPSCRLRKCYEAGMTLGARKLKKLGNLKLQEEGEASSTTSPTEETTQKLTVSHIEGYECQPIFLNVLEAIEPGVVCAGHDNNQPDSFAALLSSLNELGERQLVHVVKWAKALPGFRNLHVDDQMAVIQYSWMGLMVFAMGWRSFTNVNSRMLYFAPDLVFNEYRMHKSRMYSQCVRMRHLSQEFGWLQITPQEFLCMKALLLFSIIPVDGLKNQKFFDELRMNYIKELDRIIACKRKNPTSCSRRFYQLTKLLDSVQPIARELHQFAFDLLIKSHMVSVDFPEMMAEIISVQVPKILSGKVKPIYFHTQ
Procedure: The PSA-6.1-Luc luciferase reporter plasmid was provided by Dr. Zhou Wang in the Urology department of the University of Pittsburgh Cancer Institute. The PSA-6.1-Luc reporter is controlled by a fragment of the PSA promoter that contains at least three AREs. The PSA-6.1-Luc plasmid (12 ng/well) was combined with Fugene 6 at a ratio 6:1 in SFM and incubated for 25 min at room temperature before being combined with C4–2 cells suspended in RPMI 1640 media containing 1% penicillin-streptomycin, 1% L-glutamine, and 10% FBS. Transfected cells were then seeded into white opaque 384-well assay plates (Greiner Bio-one, #781080) at 6000 cells per well in a volume of 30 μL and incubated in 5% CO2, 37 °C, and 95% humidity for 24 h.

[2] = test system: LNCaP cells; experiment: Prostate cancer cell line growth inhibition assay, LNCaP; assay type: cell-based; details: 72 h, read-out: LNCap GI50 (AR+)
Procedure: The PC-3, DU-145, LNCaP, C4–2, and 22Rv1 PC cell line growth inhibition assays have been described previously. On day 1, each PC cell line was harvested, counted, and seeded into two 384-well assay plates, a time zero (T0) and a time 72 h (T72) plate. PC cell lines were all seeded at 1000 cells per well in 45 μL of tissue culture media in uncoated white clear bottom 384-well assay plates (VWR, # 82050–076) using a Matrix electronic multichannel pipette (Thermo Fisher Scientific, Waltham, MA) and cultured overnight at 37 °C, 5% CO2, and 95% humidity. On day 2, 25 μL of the Cell Titer Glo (CTG) (Promega Corporation, Madison, WI) detection reagent was dispensed into the wells of the T0 assay plate using a Matrix electronic multichannel pipette, and the RLUs were captured on the SpectraMax M5e (Molecular Devices LLC, Sunnyvale, CA) microtiter plate reader. Also on day 2, 5 μL of compounds were transferred into the test wells of the T72 384-well assay plates which were returned to the incubator for 72 h. Control wells received DMSO alone. On day 5, 25 μL of the CTG detection reagent was dispensed into the wells of the T72 assay plate using a Matrix electronic multichannel pipette, and the RLU’s were captured on the SpectraMax M5e microtiter plate reader platform.
In 384-well assays, DMSO minimum (n = 32) and maximum (n = 32) plate control wells were utilized to calculate signal-to-background ratios (S:B) and Z’-factor coefficient assay performance quality control statistics, and to normalize the signals of compound treated wells and to represent 0% and 100% respectively. For the 96-well AR-LBD H^3-DHT radioligand binding assay, eight minimum and maximum plate control wells were utilized to normalize the data. For the PC cell line growth inhibition assays we used the DMSO control data from the T0 and T72 assay plates to assess the dynamic range of the T0 to T72 cell growth, and to calculate S:B ratios and Z’-factor coefficient statistics for the assay signal window (T0 to T72). To normalize the 72 h compound exposure PC growth inhibition data, the signals from the compound treated wells were processed and expressed as% of the T72 DMSO plate controls. IC50 and GI50 values for each of the bioassays were calculated using Graph-Pad Prism 9 software to plot and fit data to curves using the Sigmoidal dose response variable slope equation Y = Bottom + [Top-Bottom]/ [1 + 10^^(LogEC50-X)*HillSlope].

pIC50 [1]	GI50 ([2]; Homo sapiens, LNCaP) [µM]	GI50 [2] [µM]	Structure (SMILES)
4.77	28.9	–	Cc1ccccc1-c1cc(O)c2c(c1)CN(c1nc(C(N)=O)cs1)CCO2 [S1–1]
4.53	–	43.4	Cc1ccccc1-c1cc(O)c2c(c1)CN(c1nccs1)CCO2 [S1–3]
4.97	31.1	–	Cc1c(-c2ccccc2F)[nH]c2ccc(CNC(=O)c3ccc(CO)o3)cc12 [S3–14]

The remaining lines, values behind:

Structure (SMILES)	pIC50 [1]	GI50 ([2]; Homo sapiens, LNCaP) [µM]	GI50 [2] [µM]
Cc1nsc(NC(=O)N2CCC(Sc3ccccc3C)CC2)n1 [S2–6]	5.70 and 5.64	19.2	–
Cc1c(-c2ccccc2F)[nH]c2ccc(CNC(=O)CCc3cn[nH]c3)cc12 [S3–11]	5.05	7.41	–
Cc1c(-c2ccccc2F)[nH]c2ccc(CNC(=O)CCc3cnccn3)cc12 [S3–12]	5.11	1.92	–
CC(=O)NCCC(=O)NCc1ccc2[nH]c(-c3ccccc3F)c(C)c2c1 [S3–13]	4.23	67.2	–
Cc1c(-c2ccc(F)cc2)[nH]c2ccc(CNC(=O)c3ccc(CO)o3)cc12 [S3–15]	5.15	14	–
